# Key:
# [1] = biological target: human plasma butyrylcholinesterase (hBuChE) (Homo sapiens (Human), UniProt P06276); assay: Ellman's test, inhibition of human plasma butyrylcholinesterase; assay type: biochemical
# In short: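 Modified Ellman assay: compound preincubated 5 min with enzyme and DTNB in 0.1 M phosphate buffer pH 8.0 at 25° C (eqBuChE) or 36° C (hBuChE), then butyrylthiocholine added; absorbance change at 412 nm read after 5 min. Screening at 10 μM (eqBuChE) or 1 μM (hBuChE); IC50 by non-linear regression, triplicates.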
# mGAT4 = mGAT4 (Mus musculus (Mouse), UniProt P31650); assay: [3H]GABA uptake inhibition, mGAT4 in HEK293 cells; assay type: cell-based; details: GABA reuptake
# Chain of mGAT4 (P31650 whole entry): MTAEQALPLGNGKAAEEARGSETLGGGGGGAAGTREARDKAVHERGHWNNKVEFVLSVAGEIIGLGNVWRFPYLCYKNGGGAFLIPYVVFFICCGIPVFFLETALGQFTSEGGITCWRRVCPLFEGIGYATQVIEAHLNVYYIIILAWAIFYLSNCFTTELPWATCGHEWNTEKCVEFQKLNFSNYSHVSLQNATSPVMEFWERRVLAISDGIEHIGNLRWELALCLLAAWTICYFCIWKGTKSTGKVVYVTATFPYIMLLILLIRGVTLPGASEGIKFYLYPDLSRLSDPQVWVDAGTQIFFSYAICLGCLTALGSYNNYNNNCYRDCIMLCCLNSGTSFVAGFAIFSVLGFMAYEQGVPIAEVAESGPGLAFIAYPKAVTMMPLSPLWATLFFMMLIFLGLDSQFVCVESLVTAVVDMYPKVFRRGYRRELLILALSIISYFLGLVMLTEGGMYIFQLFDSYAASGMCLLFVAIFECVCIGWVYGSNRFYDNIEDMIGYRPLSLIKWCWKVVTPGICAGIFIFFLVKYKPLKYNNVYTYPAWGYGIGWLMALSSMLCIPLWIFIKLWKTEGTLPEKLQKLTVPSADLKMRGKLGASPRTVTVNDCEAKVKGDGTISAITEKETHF
# Experimental: Exemplary compounds according to the invention were screened at the Ludwig-Maximilian University of Munich to determine the inhibitory ability towards four mouse GAT transporters (mGAT1-mGAT4). […] The biological material was stably transfected human embryonic kidney HEK293 cells, expressing genes to the appropriate transporters. The generated radioactivity was measured with a liquid scintillation counter. […] These determinations were made according to the procedure described in detail in A. Kragler, G. Höfner, K. T. Wanner, Novel parent structures for inhibitors of the murine GABA transporters mGAT3 and mGAT4, Eur. J. Pharmacol. 519 (2005) 43-47.
# ICR-CD1 mice = assay: Acute toxicity study in mice; assay type: in vivo, Mus musculus; parameters: key to Tremor / Convulsions / Hyper/Hypoventilation / Drooping eyelids / General exhaustion: mild (+); moderate (++); severe (+++)
# Experimental: The research was carried out at the Department of Toxicology and Military Pharmacy, Faculty of Military Health Sciences in Hradec Kralove, Defense University in Brno in the Czech Republic, at the Biomedical Research Center and at the Department of Clinical Biochemistry of the University Hospital Hradec Kralove in the Czech Republic. All procedures were carried out under the supervision of the Ethics Committee of the Faculty of Military Health Sciences (No. 20/19; MO 215611/2019-684800). Male and female ICR-CD1 strain of domestic mice (Mus musculus) (body weight approx. 20-25 g) were used in the research. The animals were kept in standard, appropriately sized cages, divided into groups of a maximum of 8 animals. The animals in the test groups were administered the test compound intraperitoneally (doses in the acute toxicity study: 10, 20, 40 and 60 mg/kg, dose in the study of pharmacokinetic parameters 10 mg/kg). Control groups received 1% Tween 80.
# The study assesses the toxicity profile of the compound by observation of emerging adverse effects, biochemical parameters analysis and histopathological analysis, and determines the maximum tolerated dose (MTD). Mice were randomly assigned to experimental groups consisting of two males and two females. […] Toxic symptoms were classified as in the previous published study [J. Misik]. Weight loss or reduction in food consumption was assessed according to the FELAS classification [K. L. Chapman] for the first two hours, and then periodically for the next 46 hours. All 48-hour survivors were euthanized. Blood was collected for biochemical analysis and selected organs (kidneys and liver) were collected for histopathological examination. Venous blood was collected in heparinized tubes. Plasma was then separated (3000×g, 5 min, 4° C.) using a centrifuge. The concentration of urea and creatinine as well as the activity of alanine aminotransferase (ALT), aspartate aminotransferase (AST), alkaline phosphatase (ALP), amylase and lactate dehydrogenase (LDH) were determined in an accredited biochemical laboratory. The harvested organs: liver and kidneys were used for standard histopathological examination. Organs were fixed with 10% neutral buffered formalin, processed for histology, and stained with hematoxylin and eosin as in a previous published study [J. Pejchal]. Histopathological changes were assessed microscopically.
# [2] = 10 mg/kg (MTD) i.p., mouse Female1
# [3] = 10 mg/kg (MTD) i.p., mouse Female2
# [4] = 10 mg/kg (MTD) i.p., mouse Male1
# [5] = 10 mg/kg (MTD) i.p., mouse Male2
# [6] = plasma, 10 mg/kg (MTD) i.p., 48 h
# Chain of human plasma butyrylcholinesterase (hBuChE) (P06276 29-602): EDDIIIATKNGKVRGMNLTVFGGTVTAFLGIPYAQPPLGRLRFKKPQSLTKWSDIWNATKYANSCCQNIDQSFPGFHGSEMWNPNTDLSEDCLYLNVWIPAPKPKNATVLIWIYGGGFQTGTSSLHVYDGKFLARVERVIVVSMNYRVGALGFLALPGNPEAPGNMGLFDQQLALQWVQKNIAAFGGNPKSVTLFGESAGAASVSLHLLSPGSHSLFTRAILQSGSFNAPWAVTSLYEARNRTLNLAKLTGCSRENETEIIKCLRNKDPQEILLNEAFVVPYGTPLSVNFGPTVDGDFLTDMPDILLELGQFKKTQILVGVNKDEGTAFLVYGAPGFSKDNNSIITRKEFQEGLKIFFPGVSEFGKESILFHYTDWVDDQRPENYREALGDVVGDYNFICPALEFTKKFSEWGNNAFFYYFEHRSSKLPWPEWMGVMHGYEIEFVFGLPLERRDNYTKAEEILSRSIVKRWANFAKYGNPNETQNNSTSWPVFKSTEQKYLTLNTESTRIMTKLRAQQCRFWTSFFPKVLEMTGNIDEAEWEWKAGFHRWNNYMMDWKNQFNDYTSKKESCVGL
structure (smiles),measurement,setting,value
"O[C@H](CNCC1CC1)[C@H](Cc1ccccc1)NC1c2ccccc2-c2ccccc21 [JT-3, (2R,3S)-3-((9H-fluoren-9-yl)amino)-1-((cyclopropylmethyl)amino)-4-phenylbutan-2-ol]",IC50,[1],207 nM
same,pIC50 (+/−SEM) mGAT4,mGAT4,5.11 +/− 0.02
same,"changes in biochemical parameters (urea, creatinine, liver enzymes, ALP, amylase, LDH) compared to control",ICR-CD1 mice; 10 mg/kg (MTD) i.p.,no statistically significant changes
same,"histopathological changes (liver, kidneys)",ICR-CD1 mice; 10 mg/kg (MTD) i.p.,"only sporadic infiltration of neutrophils into the liver and adipose tissue was observed in two animals, without any signs of liver or kidney damage"
same,Body weight change at 24 h (%),ICR-CD1 mice; [2],−3.9%
same,Body weight change at 48 h (%),ICR-CD1 mice; [2],−0.4%
same,Drooping eyelids,ICR-CD1 mice; [2],+
same,General exhaustion,ICR-CD1 mice; [2],+
same,Hyper/Hypoventilation,ICR-CD1 mice; [2],+
same,Tremor,ICR-CD1 mice; [2],+
same,Body weight change at 24 h (%),ICR-CD1 mice; [3],−5.8%
same,Body weight change at 48 h (%),ICR-CD1 mice; [3],−5.2%
same,Convulsions,ICR-CD1 mice; [3],+
same,Drooping eyelids,ICR-CD1 mice; [3],+
same,General exhaustion,ICR-CD1 mice; [3],+
same,Hyper/Hypoventilation,ICR-CD1 mice; [3],+
same,Tremor,ICR-CD1 mice; [3],++
same,Body weight change at 24 h (%),ICR-CD1 mice; [4],−1.3%
same,Body weight change at 48 h (%),ICR-CD1 mice; [4],−2.4%
same,General exhaustion,ICR-CD1 mice; [4],+
same,Hyper/Hypoventilation,ICR-CD1 mice; [4],+
same,Tremor,ICR-CD1 mice; [4],+
same,Body weight change at 24 h (%),ICR-CD1 mice; [5],−1.2%
same,Body weight change at 48 h (%),ICR-CD1 mice; [5],−0.7%
same,General exhaustion,ICR-CD1 mice; [5],+
same,Hyper/Hypoventilation,ICR-CD1 mice; [5],+
same,Tremor,ICR-CD1 mice; [5],+
same,maximum tolerated dose (MTD),"ICR-CD1 mice; mice, i.p., doses tested 10, 20, 40 and 60 mg/kg",10 mg/kg
same,ALP,ICR-CD1 mice; [6],68.4 ± 27.2 U/L
same,ALT,ICR-CD1 mice; [6],29.0 ± 6.5 U/L
same,AST,ICR-CD1 mice; [6],56.8 ± 6.6 U/L
same,Amylase,ICR-CD1 mice; [6],2955 ± 501 U/L
same,LDH,ICR-CD1 mice; [6],275 ± 94 U/L
same,Urea,ICR-CD1 mice; [6],33.8 ± 8.2 mg/dL

# — patent publication US12492163B2, “9H-fluorene derivatives or their pharmaceutically acceptable salts” (priority 2020, dated 2025)
